Measurements published in patent US11564913B2, “Compositions and methods for treating cancer” (Children's Hospital Medical Center, priority 2019, dated 2023).

Columns and labels:
[1] = test system: ST8814, MCF7, MDA-MB-231, and T47D cells; test: Cellular GI50s (summary of cell proliferation); assay type: cell-based
From the text: Applicants tested IODVA1's ability to inhibit the proliferation of cells harboring activated Ras and therefore its ability to recapitulate the compound obtained from the NCI. Applicants chose the NF1-associated malignant peripheral nerve sheath tumors (MPNST) cell line ST8814, which is characterized by active wild-type Ras (Basu et al., 1992; Mahller et al., 2006) and the triple negative breast cancer cell line MDA-MB-231 carrying the oncogenic KRAS^G13D mutation (Hollestelle et al., 2007). In addition, applicants used the non-transformed mammary epithelial cell line MCF10A (RAS^WT immortalized by a spontaneous t(3;9)(3p13;9p22) translocation that deletes the CDKN2A gene, also known as p16) and the non-invasive estrogen receptor (ER) and progesterone receptor (PR) positive RAS^WT breast cancer cell line MCF7 (wild-type p53) and T47D (mutant p53). Cells were grown in growth media containing IODVA1 at concentrations between 0.1 and 10 μM or vehicle control and cell number was counted using the trypan blue exclusion method. […] Appreciable decrease in proliferation of non-transformed MCF10A cells was not observed.
IODVA1 has two pyridine groups attached to a central imidazole group. […] To test this hypothesis, applicants evaluated the potential of IODVA1 to interfere with the ability of 369 recombinant wild-type kinases to hydrolyze ATP.

[2] = test system: active Cdc42 in MDA-MB-231 cells; test: Active GTPase pull-down (GST-PAK-GBD); assay type: cell-based, human; settings: 0-3 μM, 1 h
Procedure: (§1) FIG. 5: Cytoskeletal changes induced by IODVA1 treatment. IODVA1 inhibits lamellipodia and circular dorsal ruffle (CDR) formation in MDA-MB-231 cells and decreases Rac activation. (A) IODVA1 inhibits EGF-induced lamellipodia formation in MDA-MB-231 cells. MDA-MB-231 cells were plated on fibronectin-coated coverslips, serum starved for 4 h, incubated with the indicated concentrations of IODVA1 for 1 h, then EGF (50 ng/mL) stimulated, fixed and stained with Phalloidin Alexa Fluor 594 (F-Actin, pseudocolored red) and DAPI (nuclei, pseudocolored blue). […] The percentage of cells with CDRs was counted as the number of cells with CDRs normalized to the total number of cells in the field. Around 150 cells were counted per condition per experiment. Cells with multiple CDRs were counted only once. […] Levels of active Rac (RacGTP, % of control), active Cdc42 (Cdc42GTP, % of control) and active RhoA (RhoAGTP, % of control) were quantified using ImageJ and ImageLab and show combined data as mean±s.e.m. from at least 3 independent experiments. […]
(§2) To confirm that IODVA1 interferes with Rac activation, applicants checked the levels of active Rac and its downstream effector PAK1/2. MDA-MB-231 cells were incubated with IODVA1 (0-3 μM) for 1 h and levels of GTP-bound active Rac were measured by GST-PAK-GBD pull-downs and quantified (FIG. 5C). […]

[3] = test system: active Rac (RacGTP) in MDA-MB-231 cells; test: Active GTPase pull-down (GST-PAK-GBD); assay type: cell-based, human; settings: 0-3 μM, 1 h, dose-dependent
Procedure: as §1, §2

OC1(c2ccccn2)N=C(Nc2nc3ccccc3[nH]2)N=C1c1ccccn1 (stereo not drawn) [IODVA1, (Z)-2-((1H-benzo[d]imidazol-2-yl)imino)-4,5-di(pyridin-2-yl)-2,5-dihydro-1H-imidazol-5-ol]
GI50 [1]: 500 to 1000 nM | levels of active Cdc42 [2]: decreased but only at the highest IODVA1 concentration | levels of active Rac [3]: significantly decreases
